Results from patent US20140148336A1, “METHODS OF CONTROLLING FUNGAL PATHOGENS USING POLYENE FUNGICIDES” (priority 2012, published 2014).
Where two headings read alike, the source gives them in different places.

Columns and labels:
F. virguliforme [1] = assay type: in vivo, Fusarium virguliforme; settings: 50 mL per cone, 2% low rate infested soil, 18-21 days
Protocol: Sorghum was prepared for inoculation. One to two liters of sorghum seed was put into spawn bags, autoclaved, then inoculated with 30-45 mL of an SDA spore suspension. Bags were left in a cupboard at room temperature, then shaken and mixed every few days for three weeks until ready. Sorghum inoculum was assessed for the number of spores per gram of seed by hemacytometer. The sorghum grew to 4.57×10^5 spores/g.
F. virguliforme spores were enumerated before soil inoculation. First, 25 mL of sterile 0.1% Tween 80 in water was added to sterile 50 mL conical tubes. The tubes where weighed. Then several grains of colonized sorghum from the spawn bag were aseptically added. The tubes were re-weighed to find the exact mass of colonized spores added to the tube. The tubes were shaken at 28-30° C. at approximately 250 rpm for 2-4 hours to release spores from the sorghum seed. Samples were then removed from the tubes and spores were quantified using a hemacytometer. F. virguliforme spores were quantified by making a dilution series from each tube onto PDA plates with 100 ppm chloramphenicol antibiotic.
Soil inoculation began by grounding sorghum grain inoculum in a Waring blender in small batches for 10-20 seconds on the low setting. The ground sorghum was then mixed into Monterey sand fine #60 (Lapis Luster, RMC pacific materials) at either a “2% low rate,” consisting of 2×10^5 spores/cone with 8.9 g/L of sand, or a “5% high rate,” consisting of 5×10^5 spores/cone with 22.5 g/L of sand. The Monterey sand was not pre-sterilized. The ground sorghum inoculum was added on the same day as the experimental set up. In later experiments, ground sorghum inoculum was mixed into sand based on the enumerated spores per gram of inoculum.
Natamycin solution was added in four different concentrations to four different groups of untreated seeds in “2% low rate” infested soil cones. The four different concentrations were 250 ppm, 100 ppm, 50 ppm, and 25 ppm. Fifty milliliters of the natamycin solutions were used per cone.
The assays were planted by first moistening infested sand with water at 150 mL per liter of sand and mixing. The cone-shaped containers were filled 1-2 inches at the bottom with a Sunshine #3 potting mix plug in order to keep the sand in the tube. The containers were then filled to within 1-1.5 inches of the top with moistened and infested sand, taking an average of 120-125 mL to fill each container. The containers were then watered. Two soy seeds were planted into each container. […]
The plants were allowed to grow for 18-21 days. The plants were then gently removed and assessed for root rot symptoms, with a rating of 1=0% infection on taproot and lateral roots, a 2=<25% infection, a 3=25-50% infection, a 4=51-90% infection, and a 5=>90% infection. […]

F. virguliforme [2] = experiment: Agar diffusion assay, zones of inhibition on F. virguliforme lawn plates (Example 1); assay type: cell-based, Fusarium virguliforme
Protocol: A PDA plate containing two week old F. virguliforme was flooded with sterile distilled water and scraped with an L-rod to release spores. The spore solution was poured through about four layers of cheese cloth into a 50 mL conical tube. Spores were quantified using a hemacytometer, then diluted to 1×10^5 spores/mL. (1×10^4 spores were spread on plates.) To make F. virguliforme lawn plates, 100 μL of the spore suspension was spread onto commercial PDA plates. Wells were made for the F. virguliforme lawn plates using straw-plungers.
Natamycin stock was diluted in sterile distilled water to concentrations of 500 ppm, 250 ppm, 100 ppm, 50 ppm, 25 ppm, 12.5 ppm, 6.25 ppm, 3.13 ppm, 1.56 ppm, 0.78 ppm, and 0.4 ppm. 100 μL of each dilution was placed in a well on the lawn plates. Control plates consisted of a 1000 ppm plate, a water control, and a 70% ethanol (EtOH) control.
[…] […] Dilutions lower than 12.5 ppm had no effect.

SDS spores = experiment: Drench treatment on soy seedlings for control of SDS in planta (Example 3); assay type: in vivo, Fusarium virguliforme; settings: 50 mL per container, 1×10^7 spores/container, eighteen days
Source text: The plants were allowed to grow for 18-21 days. The plants were then gently removed and assessed for root rot symptoms, with a rating of 1=0% infection on taproot and lateral roots, a 2=<25% infection, a 3=25-50% infection, a 4=51-90% infection, and a 5=>90% infection. Root vigor was rated such that a rating of 4=healthy taproot and many lateral roots, a 3=fewer lateral roots and some stunting, a 2=fewer or stringy lateral roots and more stunting, 1=thin tap root and only a few lateral roots, and a 0=thin and stunted taproot with 0-3 lateral roots. […] Two experiments were performed. The natamycin solutions were used as a drench treatment with 50 mL of the solution applied to each container. Soy seedlings were transplanted into SDS infested soil, with SDS spores at a rate of 1×10^7 spores/container. The natamycin solutions were applied to the containers the day after transplant. Soy roots were washed after eighteen days.

Q: With `C[C@@H]1C/C=C/C=C/C=C/C=C/[C@H](O[C@@H]2O[C@H](C)[C@@H](O)[C@H](N)[C@@H]2O)C[C@@H]2O[C@](O)(C[C@@H](O)C[C@H]3O[C@@H]3/C=C/C(=O)O1)C[C@H](O)[C@H]2C(=O)O` [Natamycin, natamycin] as the molecule, how does the “root rot ratings as compared to the infected control” value (F. virguliforme [1]; 25 ppm/container) read?
A: significantly lowering

Q: And the “root vigor as compared to the infected control” value (F. virguliforme [1]; 25 ppm/container)?
A: improving

Q: What about the “root rot ratings as compared to the infected control” value (F. virguliforme [1]; 50 ppm/container) of the same molecule?
A: significantly lowering

Q: What about the “root vigor as compared to the infected control” value (F. virguliforme [1]; 50 ppm/container) of the same molecule?
A: improving

Q: And the “control of F. virguliforme (zones of inhibition), drop off” value (F. virguliforme [2]; 12.5 ppm, 100 μL per well, after three days)?
A: noticeably

Q: What about the “control of F. virguliforme (zones of inhibition)” value (F. virguliforme [2]; 12.5 ppm, after seven days) of the same molecule?
A: very limited activity

Q: And the “Fusarium growth around plates” value (F. virguliforme [2]; 25 ppm and 12.5 ppm plates, one day later (after the three-day reading))?
A: more Fusarium grew

Q: And the “control of F. virguliforme (zones of inhibition)” value (F. virguliforme [2]; 50 ppm, 100 μL per well, after three days)?
A: started to drop off slightly

Q: What about the “control of F. virguliforme (zones of inhibition)” value (F. virguliforme [2]; 50 ppm, after seven days) of the same molecule?
A: started falling off

Q: What about the “control of F. virguliforme (zones of inhibition)” value (F. virguliforme [2]; 100 ppm, 100 μL per well, after three days) of the same molecule?
A: Substantial control

Q: And the “control of F. virguliforme (zones of inhibition)” value (F. virguliforme [2]; 250 ppm, 100 μL per well, after three days)?
A: Substantial control

Q: And the “control of F. virguliforme (zones of inhibition)” value (F. virguliforme [2]; 500 ppm, 100 μL per well, after three days)?
A: Substantial control

Q: And the “control of F. virguliforme (zones of inhibition)” value (F. virguliforme [2]; 1000 ppm plate, after three days)?
A: almost completely controlled

Q: And the “effect on F. virguliforme (zones of inhibition)” value (F. virguliforme [2]; dilutions lower than 12.5 ppm)?
A: no effect

Q: And the “root rot ratings vs infested control (IC) plants” value (SDS spores; drench 10 ppm)?
A: significantly lower

Q: And the “root vigor ratings vs infested control (IC) plants” value (SDS spores; drench 10 ppm)?
A: higher

Q: And the “root rot ratings vs infested control (IC) plants” value (SDS spores; drench 25 ppm)?
A: significantly lower

Q: And the “root vigor ratings vs infested control (IC) plants” value (SDS spores; drench 25 ppm)?
A: higher

Q: And the “root rot ratings vs infested control (IC) plants” value (SDS spores; drench 50 ppm)?
A: significantly lower

Q: And the “root vigor ratings vs infested control (IC) plants” value (SDS spores; drench 50 ppm)?
A: higher
